This is an account of results in paper PMC4938718 (Structure (London, England : 1993), 2016).

In assay [1] the target is T1, HisF subunit of imidazole glycerol phosphate synthase (IGPS) (Thermotoga maritima, UniProt Q9X0C6).
T1 sequence (Q9X0C6 1-253): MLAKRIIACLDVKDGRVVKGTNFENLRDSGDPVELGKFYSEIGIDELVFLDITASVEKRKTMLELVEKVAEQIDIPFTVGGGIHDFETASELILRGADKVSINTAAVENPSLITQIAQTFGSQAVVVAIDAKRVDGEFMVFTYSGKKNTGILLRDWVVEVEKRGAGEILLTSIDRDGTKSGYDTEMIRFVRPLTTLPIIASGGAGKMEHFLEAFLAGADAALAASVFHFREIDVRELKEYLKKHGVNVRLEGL
T1 sequence (Q9X0C8 1-201 partner): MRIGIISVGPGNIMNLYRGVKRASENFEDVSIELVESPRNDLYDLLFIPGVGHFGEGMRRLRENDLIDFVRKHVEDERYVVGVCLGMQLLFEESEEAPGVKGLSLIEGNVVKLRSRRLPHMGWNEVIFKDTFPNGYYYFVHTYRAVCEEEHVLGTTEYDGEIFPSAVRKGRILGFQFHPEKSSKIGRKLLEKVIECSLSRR
Put plainly: NMR lineshape analysis of titration. It is filed as binding.

Assay [2] concerns the target T2, HisH subunit of imidazole glycerol phosphate synthase (IGPS) (Thermotoga maritima, UniProt Q9X0C8).
T2 sequence (Q9X0C8 1-201): T1 sequence (Q9X0C8 1-201 partner)
T2 sequence (Q9X0C6 1-253 partner): T1 sequence (Q9X0C6 1-253)
Kind of assay: covalent labeling, loss of free Cys thiol confirmed by DTNB assay. Format: binding.

The compound `NC(=O)c1ncn([C@@H]2O[C@H](COP(=O)(O)O)[C@@H](O)[C@H]2O)c1N` [AICAR] returned a Kd in assay [1] of 1500 ± 200 µM.

With `N[C@H](C(=O)O)[C@@H]1CC(Cl)=NO1` [acivicin], the “covalent labeling, loss of free Cys thiol confirmed by DTNB assay” value in assay [2] was “Covalent modification of IGPS with the non-hydrolyzable Gln analogue acivicin was achieved by incubating IGPS with two molar equivalents”.
